Results reported in DBAASP.
Converted amounts (≈) assume the structure as drawn.

What was measured:
Experiment in all cases: ≥ marks a high value that may be exact or a test limit, other limits are often not marked, values filed in µg/mL are converted to µM
[1] = test system: Candida albicans NCPF 1467
[2] = test system: Staphylococcus aureus NCTC 10788
[3] = test system: Escherichia coli NCTC 10418
[4] = test system: Escherichia coli ATCC 25922
[5] = test system: Pseudomonas aeruginosa CMCCB 10104
[6] = test system: Staphylococcus aureus ATCC 25923
[7] = test system: Candida albicans ATCC 2002
[8] = test system: Pseudomonas aeruginosa ATCC 27853
[9] = test system: Bacillus subtilis
[10] = test system: Escherichia coli DH5alpha
[11] = test system: Escherichia coli ATCC 25726

In the case of CC[C@H](C)[C@H](NC(=O)CN)C(=O)NCC(=O)NCC(=O)N[C@@H](C)C(=O)N[C@@H](CC(C)C)C(=O)N[C@@H](CC(C)C)C(=O)N[C@@H](CO)C(=O)N[C@@H](C)C(=O)NCC(=O)N[C@@H](CCCCN)C(=O)N[C@@H](C)C(=O)N[C@@H](C)C(=O)N[C@@H](CC(C)C)C(=O)N[C@@H](CCCCN)C(=O)NCC(=O)N[C@@H](CC(C)C)C(=O)N[C@@H](C)C(=O)N[C@@H](CCCCN)C(=O)NCC(=O)N[C@@H](CC(C)C)C(=O)N[C@@H](C)C(=O)N[C@@H](CCC(=O)O)C(=O)N[C@@H](Cc1cnc[nH]1)C(=O)N[C@@H](Cc1ccccc1)C(=O)N[C@@H](C)C(=O)N[C@@H](CC(N)=O)C(N)=O [GIGGALLSAGKAALKGLAKGLAEHFAN], the MIC [1] is reported as 6 µM (≈ 15.2 µg/mL), the MIC [2] is reported as 3 µM (≈ 7.6 µg/mL) and the MIC [3] is reported as 12 µM (≈ 30.4 µg/mL).
In the case of CC[C@H](C)[C@H](NC(=O)[C@H](Cc1cnc[nH]1)NC(=O)[C@@H]1CCCN1C(=O)[C@@H](NC(=O)[C@H](CC(C)C)NC(=O)[C@H](CO)NC(=O)[C@H](CC(C)C)NC(=O)[C@@H](N)Cc1ccccc1)[C@@H](C)CC)C(=O)N[C@H](C(=O)N[C@@H](CO)C(=O)NCC(=O)N[C@H](C(=O)N[C@@H](C)C(=O)N[C@@H](C)C(=O)N[C@@H](CC(C)C)C(=O)N[C@@H](C)C(=O)N[C@@H](CC(N)=O)C(=O)N[C@@H](Cc1cnc[nH]1)C(=O)N[C@@H](CC(C)C)C(N)=O)C(C)C)C(C)C [FLSLIPHIVSGVAALANHL], the MIC [1] is reported as ≥ 200 µM, the MIC [2] is reported as ≥ 200 µM and the MIC [3] is reported as ≥ 200 µM.
In the case of CC[C@H](C)[C@H](NC(=O)[C@H](C)NC(=O)[C@@H]1CCCN1C(=O)[C@H](CCCN=C(N)N)NC(=O)[C@@H](N)CC(C)C)C(=O)N[C@@H](CC(C)C)C(=O)N[C@H](C(=O)N[C@@H](CCCN=C(N)N)C(=O)N[C@H](C(=O)N[C@@H](CCCCN)C(N)=O)[C@@H](C)O)C(C)C [LRPAILVRTK], the MIC [1] is reported as ≥ 439 µM, the MIC [2] is reported as ≥ 439 µM and the MIC [3] is reported as ≥ 439 µM.
In the case of CC[C@H](C)[C@H](NC(=O)[C@H](Cc1ccc(O)cc1)NC(=O)[C@H](CO)NC(=O)[C@H](CS)NC(=O)[C@H](Cc1ccccc1)NC(=O)[C@H](CC(C)C)NC(=O)[C@H](CC(N)=O)NC(=O)[C@H](CCC(=O)O)NC(=O)[C@H](CCSC)NC(=O)[C@H](CC(C)C)NC(=O)[C@@H](NC(=O)[C@@H](NC(=O)[C@H](CC(=O)O)NC(=O)[C@H](CCC(=O)O)NC(=O)[C@H](CCC(=O)O)NC(=O)[C@H](C)NC(=O)[C@H](CC(N)=O)NC(=O)[C@@H](N)CCC(=O)O)[C@@H](C)CC)C(C)C)C(=O)N[C@H](C(=O)NCC(=O)N[C@@H](CO)C(=O)N[C@@H](C)C(=O)N[C@@H](CC(=O)O)C(=O)N[C@@H](CO)C(=O)N[C@@H](Cc1ccccc1)C(=O)N[C@@H](Cc1c[nH]c2ccccc12)C(=O)N[C@H](C(=O)O)[C@@H](C)O)C(C)C [ENAEEDIVLMENLFCSYIVGSADSFWT], the MIC [4] is reported as > 64.9 µM, the MIC [5] is reported as ≥ 64.9 µM and the MIC [6] is reported as > 64.9 µM. For the same compound, the MIC [7] was ≥ 64.9 µM.
CC[C@H](C)[C@H](NC(=O)[C@H](Cc1ccccc1)NC(=O)[C@@H](NC(=O)[C@H](Cc1ccccc1)NC(=O)[C@H](CCCN=C(N)N)NC(=O)[C@H](CCCCN)NC(=O)[C@H](CCCN=C(N)N)NC(=O)[C@H](CCCCN)NC(=O)[C@H](Cc1ccccc1)NC(=O)[C@H](CC(C)C)NC(=O)[C@@H](NC(=O)[C@@H](N)Cc1ccc(O)cc1)C(C)C)[C@@H](C)CC)C(=O)O [YVLFKRKRFIFI] was tested, and the MIC [8] was > 200 µM, the MIC [9] was ≥ 200 µM and the MIC [6] was 200 µM (≈ 326 µg/mL). For the same compound, the MIC [10] was ≥ 50 µM.
In the case of CC[C@H](C)[C@H](NC(=O)[C@H](CC(N)=O)NC(=O)[C@H](Cc1ccccc1)NC(=O)[C@H](CCSC)NC(=O)[C@H](CC(N)=O)NC(=O)[C@@H](N)CCC(=O)O)C(=O)N[C@@H](CCCCN)C(=O)N[C@@H](CO)C(=O)N[C@@H](CO)C(=O)N[C@H](C(=O)N[C@@H](CCC(=O)O)C(=O)N[C@@H](CO)C(=O)N[C@@H](CC(=O)O)C(=O)N[C@@H](CO)C(=O)N[C@@H](Cc1ccccc1)C(=O)N[C@@H](Cc1c[nH]c2ccccc12)C(=O)NCC(=O)O)C(C)C [ENMFNIKSSVESDSFWG], the MIC [4] is reported as > 101 µM, the MIC [5] is reported as ≥ 101 µM and the MIC [6] is reported as > 101 µM. For the same compound, the MIC [7] was ≥ 101 µM.
With CC[C@H](C)[C@H](NC(=O)[C@H](CC(N)=O)NC(=O)[C@@H](NC(=O)[C@H](C)N)[C@@H](C)O)C(=O)N1CCC[C@H]1C(=O)N[C@@H](Cc1ccccc1)C(=O)N[C@@H](CCCCN)C(=O)N[C@H](C(=O)N[C@@H](Cc1cnc[nH]1)C(=O)N[C@@H](Cc1ccccc1)C(=O)N[C@@H](CCCN=C(N)N)C(=O)N[C@H]1CSSC[C@@H](C(=O)O)NC(=O)[C@H](Cc2ccccc2)NC(=O)[C@H](C)NC(=O)[C@H](C)NC(=O)[C@H](CCCCN)NC1=O)C(C)C [ATNIPFKVHFRCKAAFC] the MIC [4] was 12 µM (≈ 23.5 µg/mL), the MIC [5] was 24.1 µM (≈ 47 µg/mL) and the MIC [6] was > 24.1 µM. It also gave an MIC [7] of 24.1 µM (≈ 47 µg/mL).
For CC[C@H](C)[C@@H]1NC(=O)[C@H](C)NC(=O)[C@@H](NC(=O)[C@H](Cc2ccc(O)cc2)NC(=O)[C@H](C)NC(=O)[C@H](C)NC(=O)[C@@H]2CCCN2C(=O)[C@@H](NC(=O)[C@@H](NC(=O)[C@H](CCCCN)NC(=O)[C@@H](NC(=O)[C@H](C)NC(=O)[C@H](C)NC(=O)[C@H](CCCCN)NC(=O)[C@@H](NC(=O)[C@H](CC(C)C)NC(=O)CNC(=O)CNC(=O)[C@H](CCSC)NC(=O)[C@@H](N)Cc2ccccc2)[C@@H](C)CC)[C@@H](C)O)[C@@H](C)CC)C(C)C)CSSC[C@@H](C(=O)O)NC(=O)[C@H](CCCCN)NC(=O)[C@H](CCCCN)NC(=O)[C@H]([C@@H](C)O)NC1=O [FMGGLIKAATKIVPAAYCAITKKC], the MIC [11] was 25 µM (≈ 62.5 µg/mL) and the MIC [6] was 3.2 µM (≈ 7.99 µg/mL).
For CC[C@H](C)[C@H](NC(=O)[C@H](CO)NC(=O)[C@H](CC(N)=O)NC(=O)[C@@H](NC(=O)[C@H](Cc1ccccc1)NC(=O)[C@H](C)NC(=O)[C@H](CO)NC(=O)[C@H](C)NC(=O)[C@H](Cc1ccccc1)NC(=O)[C@H](CC(=O)O)NC(=O)[C@H](CCCCN)NC(=O)[C@H](C)NC(=O)CNC(=O)[C@@H](NC(=O)[C@H](CCCCN)NC(=O)[C@H](CC(C)C)NC(=O)[C@H](CCCCN)NC(=O)[C@H](CCC(=O)O)NC(=O)[C@H](CC(C)C)NC(=O)[C@H](Cc1ccccc1)NC(=O)CN)[C@@H](C)O)C(C)C)C(=O)N[C@@H](CCCCN)C(=O)NCC(=O)N[C@H](C(=O)O)[C@@H](C)O [GFLEKLKTGAKDFASAFVNSIKGT], the MIC [1] was ≥ 202 µM, the MIC [2] was ≥ 202 µM and the MIC [3] was ≥ 202 µM.
In the case of CSCC[C@H](NC(=O)[C@H](CCCCN)NC(=O)[C@@H](NC(=O)[C@H](CCC(=O)O)NC(=O)[C@H](CCCCN)NC(=O)[C@H](CCCCN)NC(=O)[C@H](CCCCN)NC(=O)[C@H](CCCCN)NC(=O)[C@H](CC(C)C)NC(=O)[C@H](CCSC)NC(=O)[C@@H](N)CCC(=O)O)C(C)C)C(=O)N[C@@H](CCC(=O)O)C(=O)N[C@@H](CCCN=C(N)N)C(=O)N[C@@H](CCCCN)C(=O)N[C@H](C(=O)O)[C@@H](C)O [EMLKKKKEVKMERKT], the MIC [4] is reported as > 105 µM, the MIC [5] is reported as ≥ 105 µM and the MIC [6] is reported as > 105 µM. For the same compound, the MIC [7] was ≥ 105 µM.
CC[C@H](C)[C@H](NC(=O)[C@H](CC(C)C)NC(=O)[C@H](CCC(N)=O)NC(=O)[C@@H](NC(=O)[C@H](C)NC(=O)CNC(=O)[C@H](CCCCN)NC(=O)[C@@H](NC(=O)[C@H](CC(C)C)NC(=O)[C@@H](NC(=O)[C@H](Cc1ccccc1)NC(=O)[C@@H](NC(=O)CN)C(C)C)[C@@H](C)O)[C@@H](C)CC)[C@@H](C)O)C(=O)NCC(=O)N[C@@H](CCCCN)C(=O)N[C@H](C(=O)N[C@@H](CC(C)C)C(=O)NCC(=O)N[C@@H](CCCCN)C(=O)N[C@@H](CCC(=O)O)C(=O)N[C@@H](CC(C)C)C(=O)NCC(=O)N[C@@H](CCCCN)C(=O)N[C@H](C(=O)NCC(=O)N[C@@H](CC(C)C)C(=O)N[C@@H](CCC(=O)O)C(=O)N[C@H](C(=O)N[C@@H](CCSC)C(=O)N[C@@H](C)C(=O)N[C@H]1CSSC[C@@H](C(=O)O)NC(=O)[C@H](CCC(N)=O)NC(=O)[C@H](CCCCN)NC(=O)[C@H]([C@@H](C)O)NC(=O)[C@H]([C@@H](C)CC)NC(=O)[C@H](CCCCN)NC1=O)[C@@H](C)CC)[C@@H](C)O)[C@@H](C)O [GVFTLIKGATQLIGKTLGKELGKTGLEIMACKITKQC] showed an MIC [4] of 4.06 µM (≈ 15.8 µg/mL), an MIC [5] of 4.06 µM (≈ 15.8 µg/mL) and an MIC [6] of 4.06 µM (≈ 15.8 µg/mL). It also gave an MIC [7] of 2.03 µM (≈ 7.9 µg/mL).
In the case of CC[C@H](C)[C@H](NC(=O)CNC(=O)[C@H](CS)NC(=O)[C@H](Cc1ccccc1)NC(=O)[C@H](CCCCN)NC(=O)[C@H](CCCN=C(N)N)NC(=O)[C@@H]1CCCN1C(=O)[C@H](CCCN=C(N)N)NC(=O)[C@H](CC(=O)O)NC(=O)[C@@H]1CCCN1C(=O)[C@H](C)N)C(=O)N[C@@H](CC(C)C)C(=O)NCC(=O)O [APDRPRKFCGILG], the MIC [4] is reported as > 140 µM, the MIC [5] is reported as ≥ 140 µM and the MIC [6] is reported as > 140 µM. For the same compound, the MIC [7] was ≥ 140 µM.
With CC[C@H](C)[C@H](NC(=O)[C@H](C)NC(=O)[C@@H](N)C(C)C)C(=O)N[C@@H](Cc1ccc(O)cc1)C(=O)NCC(=O)N[C@@H](CCCN=C(N)N)C(=O)N[C@@H](CC(=O)O)C(=O)N[C@@H](CC(=O)O)C(=O)N[C@@H](CCCN=C(N)N)C(=O)N[C@@H](CO)C(=O)N[C@@H](CC(=O)O)C(=O)N[C@H](C(=O)N[C@H]1CSSC[C@@H](C(=O)N[C@@H](CC(=O)O)C(=O)N[C@H](C(=O)N[C@@H](Cc2ccc(O)cc2)C(=O)O)[C@@H](C)O)NC(=O)[C@H](C(C)C)NC(=O)[C@H](CC(C)C)NC(=O)[C@H](Cc2c[nH]c3ccccc23)NC(=O)[C@H](CC(N)=O)NC(=O)[C@H](Cc2cnc[nH]2)NC(=O)[C@H](CCC(N)=O)NC(=O)[C@H](C(C)C)NC(=O)[C@H](CCC(N)=O)NC(=O)[C@H](CCCN=C(N)N)NC1=O)C(C)C [VAIYGRDDRSDVCRQVQHNWLVCDTY] the MIC [4] was > 64.3 µM, the MIC [5] was ≥ 64.3 µM and the MIC [6] was > 64.3 µM. For the same compound, the MIC [7] was ≥ 64.3 µM.
